Laboratory results reported in patent US9340590B2 (priority 2011, dated 2016).
Read-outs that look alike come from different tables or passages of the source. Positions of bridges follow the written chain, without caps; N, C: chain ends. Non-standard residues stand in square brackets, D forms with d. Residues, ends and D or L forms follow the SMILES beside them. *: point of attachment. Phe(3,4-Cl2) = N[C@@H](Cc1ccc(Cl)c(Cl)c1)C(=O)O; NMeW = CN[C@@H](Cc1c[nH]c2ccccc12)C(=O)O; Cit = NC(=O)NCCC[C@H](N)C(=O)O; Pent4ynoyl = C#CCCC(=O)*; Abu = CC[C@H](N)C(=O)O

Key:
Experiment in all cases: cell-based
hNav1.7 = hNav1.7 (Homo sapiens, UniProt Q15858); assay type: cell-based; conditions: IonWorks Quattro, read-out: IWQ Use Nav1.7
hNav1.5 = hNav1.5 (Homo sapiens, UniProt Q14524)
hNav1.3 = hNav1.3 (Homo sapiens, UniProt Q9NY46); conditions: IonWorks Quattro, read-out: IWQ Use Nav1.3
[1] = IonWorks Quattro, use-dependent block, hNav1.5, read-out: IWQ Use Nav1.5
[2] = Table 26, IonWorks Quattro, use, […], read-out: IWQ Use Nav1.5

hNav1.3, sequence (Q9NY46 whole entry, looked up): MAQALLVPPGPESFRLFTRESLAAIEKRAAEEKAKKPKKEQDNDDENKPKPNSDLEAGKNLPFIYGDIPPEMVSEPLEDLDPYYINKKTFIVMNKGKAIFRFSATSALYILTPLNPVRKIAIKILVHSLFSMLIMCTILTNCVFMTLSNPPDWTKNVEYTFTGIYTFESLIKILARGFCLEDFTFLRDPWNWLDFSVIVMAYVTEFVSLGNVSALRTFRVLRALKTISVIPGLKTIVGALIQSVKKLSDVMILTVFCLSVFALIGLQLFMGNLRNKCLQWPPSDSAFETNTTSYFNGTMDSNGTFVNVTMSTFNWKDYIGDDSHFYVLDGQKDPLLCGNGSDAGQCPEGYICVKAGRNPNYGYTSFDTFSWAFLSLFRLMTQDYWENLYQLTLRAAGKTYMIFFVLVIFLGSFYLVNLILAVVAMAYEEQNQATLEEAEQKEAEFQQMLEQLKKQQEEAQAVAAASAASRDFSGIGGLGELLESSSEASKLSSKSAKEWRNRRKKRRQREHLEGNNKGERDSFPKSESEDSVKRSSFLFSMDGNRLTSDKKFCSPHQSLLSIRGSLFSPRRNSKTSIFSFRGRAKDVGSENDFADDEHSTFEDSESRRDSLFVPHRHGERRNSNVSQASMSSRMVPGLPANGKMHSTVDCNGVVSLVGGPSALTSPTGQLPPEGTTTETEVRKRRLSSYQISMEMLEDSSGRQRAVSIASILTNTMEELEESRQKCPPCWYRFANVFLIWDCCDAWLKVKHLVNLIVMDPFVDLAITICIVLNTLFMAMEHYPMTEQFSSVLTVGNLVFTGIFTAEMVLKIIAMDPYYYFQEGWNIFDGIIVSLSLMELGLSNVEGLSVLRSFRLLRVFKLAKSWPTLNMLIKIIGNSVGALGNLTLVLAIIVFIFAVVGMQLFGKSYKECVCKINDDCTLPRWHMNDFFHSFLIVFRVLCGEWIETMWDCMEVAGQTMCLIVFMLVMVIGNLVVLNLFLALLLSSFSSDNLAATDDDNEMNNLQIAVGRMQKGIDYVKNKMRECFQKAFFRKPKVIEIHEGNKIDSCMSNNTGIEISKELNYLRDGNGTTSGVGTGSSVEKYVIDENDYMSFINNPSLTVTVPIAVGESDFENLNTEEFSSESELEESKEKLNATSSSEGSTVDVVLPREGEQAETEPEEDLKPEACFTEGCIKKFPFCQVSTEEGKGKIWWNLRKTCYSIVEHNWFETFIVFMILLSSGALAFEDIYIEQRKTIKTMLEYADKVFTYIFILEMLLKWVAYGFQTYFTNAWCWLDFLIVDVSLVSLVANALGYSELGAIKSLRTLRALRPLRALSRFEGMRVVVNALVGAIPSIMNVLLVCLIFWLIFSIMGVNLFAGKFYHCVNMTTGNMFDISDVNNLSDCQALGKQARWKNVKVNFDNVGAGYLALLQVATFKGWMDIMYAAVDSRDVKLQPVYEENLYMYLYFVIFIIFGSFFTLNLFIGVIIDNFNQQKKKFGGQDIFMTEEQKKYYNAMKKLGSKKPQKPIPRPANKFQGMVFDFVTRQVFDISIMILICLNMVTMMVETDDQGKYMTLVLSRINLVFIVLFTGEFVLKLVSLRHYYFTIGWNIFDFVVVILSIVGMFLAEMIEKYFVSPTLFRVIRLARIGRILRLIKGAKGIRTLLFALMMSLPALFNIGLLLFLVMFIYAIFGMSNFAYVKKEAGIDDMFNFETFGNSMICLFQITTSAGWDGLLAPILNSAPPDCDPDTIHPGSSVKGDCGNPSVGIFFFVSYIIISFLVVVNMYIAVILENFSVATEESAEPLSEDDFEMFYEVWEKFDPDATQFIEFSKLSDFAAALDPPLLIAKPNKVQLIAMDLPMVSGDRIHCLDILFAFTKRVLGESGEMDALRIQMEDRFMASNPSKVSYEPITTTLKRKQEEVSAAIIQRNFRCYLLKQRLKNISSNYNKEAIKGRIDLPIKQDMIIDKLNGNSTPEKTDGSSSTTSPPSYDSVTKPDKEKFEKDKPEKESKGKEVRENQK
hNav1.5, sequence (Q14524 whole entry, looked up): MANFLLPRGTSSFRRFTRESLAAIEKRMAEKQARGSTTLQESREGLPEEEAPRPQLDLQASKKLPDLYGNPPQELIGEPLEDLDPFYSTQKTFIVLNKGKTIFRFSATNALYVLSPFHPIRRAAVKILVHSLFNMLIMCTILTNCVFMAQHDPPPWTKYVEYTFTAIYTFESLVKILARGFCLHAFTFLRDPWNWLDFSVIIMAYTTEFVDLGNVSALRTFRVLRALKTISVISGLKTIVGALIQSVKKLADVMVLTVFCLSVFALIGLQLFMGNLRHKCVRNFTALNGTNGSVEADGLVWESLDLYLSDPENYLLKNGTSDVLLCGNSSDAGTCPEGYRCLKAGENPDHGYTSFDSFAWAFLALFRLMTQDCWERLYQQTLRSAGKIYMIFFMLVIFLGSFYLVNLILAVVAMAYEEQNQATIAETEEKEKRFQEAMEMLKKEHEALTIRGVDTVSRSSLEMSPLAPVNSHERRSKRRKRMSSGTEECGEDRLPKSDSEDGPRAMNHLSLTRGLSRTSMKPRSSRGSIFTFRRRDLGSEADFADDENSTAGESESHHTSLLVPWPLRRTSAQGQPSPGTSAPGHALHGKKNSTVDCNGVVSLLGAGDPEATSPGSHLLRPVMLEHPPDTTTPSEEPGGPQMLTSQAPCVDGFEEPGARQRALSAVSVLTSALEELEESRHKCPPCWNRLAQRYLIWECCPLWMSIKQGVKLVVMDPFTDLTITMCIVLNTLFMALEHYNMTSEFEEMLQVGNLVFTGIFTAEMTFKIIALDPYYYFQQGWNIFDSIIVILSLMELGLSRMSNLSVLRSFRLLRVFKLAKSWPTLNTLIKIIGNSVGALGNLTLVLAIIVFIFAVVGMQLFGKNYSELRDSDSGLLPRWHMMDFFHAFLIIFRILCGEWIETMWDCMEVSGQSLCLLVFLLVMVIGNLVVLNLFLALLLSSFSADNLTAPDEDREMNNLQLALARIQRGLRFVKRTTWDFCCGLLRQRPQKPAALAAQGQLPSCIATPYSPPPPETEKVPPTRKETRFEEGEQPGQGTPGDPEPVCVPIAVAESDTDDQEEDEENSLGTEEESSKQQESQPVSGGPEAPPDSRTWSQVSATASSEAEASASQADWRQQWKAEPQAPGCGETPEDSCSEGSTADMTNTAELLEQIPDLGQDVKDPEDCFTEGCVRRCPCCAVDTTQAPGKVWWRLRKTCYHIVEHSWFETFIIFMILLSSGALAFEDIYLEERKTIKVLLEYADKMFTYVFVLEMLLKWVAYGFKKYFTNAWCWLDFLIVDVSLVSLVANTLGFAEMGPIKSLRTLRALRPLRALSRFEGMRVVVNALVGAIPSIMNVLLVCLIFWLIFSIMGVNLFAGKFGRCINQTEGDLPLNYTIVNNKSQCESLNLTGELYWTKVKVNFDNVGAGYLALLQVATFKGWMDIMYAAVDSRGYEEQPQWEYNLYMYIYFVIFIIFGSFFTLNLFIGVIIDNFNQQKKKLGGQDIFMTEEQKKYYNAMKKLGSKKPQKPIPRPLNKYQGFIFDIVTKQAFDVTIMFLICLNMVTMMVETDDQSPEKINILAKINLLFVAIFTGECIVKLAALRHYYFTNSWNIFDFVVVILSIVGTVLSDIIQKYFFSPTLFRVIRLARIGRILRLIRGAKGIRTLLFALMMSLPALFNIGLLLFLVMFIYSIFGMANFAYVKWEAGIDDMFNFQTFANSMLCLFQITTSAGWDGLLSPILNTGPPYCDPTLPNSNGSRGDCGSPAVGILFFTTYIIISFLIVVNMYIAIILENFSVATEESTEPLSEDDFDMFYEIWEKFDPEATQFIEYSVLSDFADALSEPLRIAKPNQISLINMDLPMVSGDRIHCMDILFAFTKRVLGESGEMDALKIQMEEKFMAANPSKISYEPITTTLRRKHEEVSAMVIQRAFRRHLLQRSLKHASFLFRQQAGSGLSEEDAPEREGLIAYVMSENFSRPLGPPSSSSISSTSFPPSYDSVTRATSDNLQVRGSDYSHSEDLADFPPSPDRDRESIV

SMILES	IC50 (hNav1.7; use-dependent block, hNav1.7) [nM]	IC50 (hNav1.5; [1]) [µM]	IC50 (hNav1.3; use-dependent block, hNav1.3) [nM]	IC50 (hNav1.7; Table 26, use, […]) [nM]	IC50 (hNav1.3; Table 26, use, […]) [nM]	other results
CC[C@H](C)[C@@H]1NC(=O)[C@@H]2CSSC[C@@H]3NC(=O)[C@H](C(C)C)NC(=O)[C@H](CC(C)C)NC(=O)[C@H](CC(N)=O)NC(=O)[C@@H]4CCCN4C(=O)[C@H](CCCNC(=N)N)NC(=O)[C@H](CSSC[C@H](NC(=O)[C@@H](N)CC(=O)O)C(=O)N[C@@H](CC(C)C)C(=O)NCC(=O)N[C@@H](C)C(=O)N[C@@H](CCSC)C(=O)N[C@@H](CCCNC(=N)N)C(=O)N[C@@H](CCCCN)C(=O)N2)NC(=O)[C@H](CSSC[C@@H](C(=O)N[C@@H](CCCCN)C(=O)N[C@@H](Cc2ccc(O)cc2)C(=O)N[C@H](C(=O)N[C@@H](Cc2ccccc2)C(N)=O)C(C)C)NC(=O)[C@H](Cc2c[nH]c4ccccc24)NC(=O)[C@H](CC(N)=O)NC(=O)[C@H](Cc2c[nH]cn2)NC(=O)[C@H]([C@@H](C)O)NC(=O)[C@H](CCCNC(=N)N)NC(=O)[C@H](CO)NC3=O)NC(=O)[C@H](CCCCN)NC(=O)[C@H](CC(=O)O)NC(=O)[C@H](CC(N)=O)NC(=O)[C@H](CC(=O)O)NC(=O)[C@@H]2CCCN2C1=O [compound 767] (H-DCLGAMRKCIPDNDKCCRPNLVCSRTHNWCKYVF-NH2; disulfide 2-17, 9-23, 16-30)	1700	> 50	3200	–	–	–
CC[C@H](C)[C@@H]1NC(=O)[C@@H]2CSSC[C@@H]3NC(=O)[C@H](C(C)C)NC(=O)[C@H](CC(C)C)NC(=O)[C@H](CC(N)=O)NC(=O)[C@@H]4CCCN4C(=O)[C@H](CCCNC(=N)N)NC(=O)[C@H](CSSC[C@H](NC(=O)[C@@H](N)CC(=O)O)C(=O)N[C@@H](CC(C)C)C(=O)NCC(=O)N[C@@H](C)C(=O)N[C@@H](CCSC)C(=O)N[C@@H](CCCNC(=N)N)C(=O)N[C@@H](CCCCN)C(=O)N2)NC(=O)[C@H](CSSC[C@@H](C(=O)N[C@@H](CCCCN)C(=O)N[C@@H](Cc2ccc(O)cc2)C(=O)N[C@H](C(=O)N[C@@H](Cc2ccccc2)C(N)=O)C(C)C)NC(=O)[C@H](Cc2c[nH]c4ccccc24)NC(=O)[C@H](CCCCN)NC(=O)[C@H](Cc2c[nH]cn2)NC(=O)[C@H]([C@@H](C)O)NC(=O)[C@H](CCCNC(N)=O)NC(=O)[C@H](CO)NC3=O)NC(=O)[C@H](CCCCN)NC(=O)[C@H](CC(=O)O)NC(=O)[C@H](CC(N)=O)NC(=O)[C@H](CC(=O)O)NC(=O)[C@@H]2CCCN2C1=O [compound 768] (H-DCLGAMRKCIPDNDKCCRPNLVCS[Cit]THKWCKYVF-NH2; disulfide 2-17, 9-23, 16-30)	1800	23.5	3200	–	–	–
CC[C@H](C)[C@@H]1NC(=O)[C@@H]2CSSC[C@@H]3NC(=O)[C@H](C(C)C)NC(=O)[C@H](CC(C)C)NC(=O)[C@H](CC(N)=O)NC(=O)[C@@H]4CCCN4C(=O)[C@H](CCCNC(=N)N)NC(=O)[C@H](CSSC[C@H](NC(=O)[C@@H](N)CC(=O)O)C(=O)N[C@@H](CC(C)C)C(=O)NCC(=O)N[C@@H](Cc4ccc(Cl)c(Cl)c4)C(=O)N[C@@H](Cc4ccccc4)C(=O)N[C@@H](CCCNC(=N)N)C(=O)N[C@@H](CCCCN)C(=O)N2)NC(=O)[C@H](CSSC[C@@H](C(=O)N[C@@H](CCCCN)C(=O)N[C@@H](Cc2ccc(O)cc2)C(=O)N[C@H](C(=O)N[C@@H](Cc2ccccc2)C(N)=O)C(C)C)NC(=O)[C@H](Cc2c[nH]c4ccccc24)NC(=O)[C@H](CCCCN)NC(=O)[C@H](Cc2c[nH]cn2)NC(=O)[C@H]([C@@H](C)O)NC(=O)[C@H](CCCNC(=N)N)NC(=O)[C@H](CO)NC3=O)NC(=O)[C@H](CCCCN)NC(=O)[C@H](CC(=O)O)NC(=O)[C@H](CC(N)=O)NC(=O)[C@H](CC(=O)O)NC(=O)[C@@H]2CCCN2C1=O [compound 621] (H-DCLG[Phe(3,4-Cl2)]FRKCIPDNDKCCRPNLVCSRTHKWCKYVF-NH2; disulfide 2-17, 9-23, 16-30)	–	–	–	–	–	IC50 (hNav1.7; use-dependent protocol, hNav1.7): 48 nM; IC50 (hNav1.5; IonWorks Quattro, use-dependent protocol, hNav1.5, read-out: IWQ Use Nav1.5): 4.1 µM; IC50 (hNav1.3; use-dependent protocol, hNav1.3): 5 nM
CC[C@H](C)[C@@H]1NC(=O)[C@@H]2CSSC[C@@H]3NC(=O)[C@H](C(C)C)NC(=O)[C@H](CC(C)C)NC(=O)[C@H](CC(N)=O)NC(=O)[C@@H]4CCCN4C(=O)[C@H](CCCNC(=N)N)NC(=O)[C@H](CSSC[C@H](NC(=O)[C@@H](N)CC(=O)O)C(=O)N[C@@H](CC(C)C)C(=O)NCC(=O)N[C@@H](Cc4ccccc4)C(=O)N[C@@H](CCSC)C(=O)N[C@@H](CCCNC(=N)N)C(=O)N[C@@H](CCCCN)C(=O)N2)NC(=O)[C@H](CSSC[C@@H](C(=O)N[C@@H](CCCCN)C(=O)N[C@@H](Cc2ccc(O)cc2)C(=O)N(C)[C@@H](Cc2c[nH]c4ccccc24)C(=O)N[C@@H](Cc2ccccc2)C(N)=O)NC(=O)[C@H](Cc2c[nH]c4ccccc24)NC(=O)[C@H](CCCCN)NC(=O)[C@H](Cc2c[nH]cn2)NC(=O)[C@H]([C@@H](C)O)NC(=O)[C@H](CCCNC(=N)N)NC(=O)[C@H](CO)NC3=O)NC(=O)[C@H](CCCCN)NC(=O)[C@H](CC(=O)O)NC(=O)[C@H](CC(N)=O)NC(=O)[C@H](CC(=O)O)NC(=O)[C@@H]2CCCN2C1=O [compound 389] (H-DCLGFMRKCIPDNDKCCRPNLVCSRTHKWCKY[NMeW]F-NH2; disulfide 2-17, 9-23, 16-30)	–	–	–	350	290	IC50 (hNav1.5; [2]): > 5 µM
CC[C@H](C)[C@@H]1NC(=O)[C@@H]2CSSC[C@@H]3NC(=O)[C@H](C(C)C)NC(=O)[C@H](CC(C)C)NC(=O)[C@H](CC(N)=O)NC(=O)[C@@H]4CCCN4C(=O)[C@H](CCCNC(=N)N)NC(=O)[C@H](CSSC[C@H](NC(=O)[C@@H](N)CC(=O)O)C(=O)N[C@@H](CC(C)C)C(=O)NCC(=O)N[C@@H](Cc4ccccc4)C(=O)N[C@@H](CCSC)C(=O)N[C@@H](CCCNC(=N)N)C(=O)N[C@@H](CCCCN)C(=O)N2)NC(=O)[C@H](CSSC[C@@H](C(=O)N[C@@H](CCCCN)C(=O)N[C@@H](Cc2ccc(O)cc2)C(=O)N[C@H](C(=O)N[C@@H](Cc2ccccc2)C(N)=O)[C@@H](C)O)NC(=O)[C@H](Cc2c[nH]c4ccccc24)NC(=O)[C@H](CCCCN)NC(=O)[C@H](Cc2c[nH]cn2)NC(=O)[C@H]([C@@H](C)O)NC(=O)[C@H](CCCNC(=N)N)NC(=O)[C@H](CO)NC3=O)NC(=O)[C@H](CCCCN)NC(=O)[C@H](CC(=O)O)NC(=O)[C@H](CC(N)=O)NC(=O)[C@H](CC(=O)O)NC(=O)[C@@H]2CCCN2C1=O [compound 396] (H-DCLGFMRKCIPDNDKCCRPNLVCSRTHKWCKYTF-NH2; disulfide 2-17, 9-23, 16-30)	–	–	–	20	40	IC50 (hNav1.5; [2]): 3.78 µM
CC[C@H](C)[C@@H]1NC(=O)[C@@H]2CSSC[C@@H]3NC(=O)[C@H](C(C)C)NC(=O)[C@H](CC(C)C)NC(=O)[C@H](CC(N)=O)NC(=O)[C@@H]4CCCN4C(=O)[C@H](CCCNC(=N)N)NC(=O)[C@H](CSSC[C@H](NC(=O)[C@@H](N)CC(=O)O)C(=O)N[C@@H](CC(C)C)C(=O)NCC(=O)N[C@@H](Cc4ccccc4)C(=O)N[C@@H](CCSC)C(=O)N[C@@H](CCCNC(=N)N)C(=O)N[C@@H](CCCCN)C(=O)N2)NC(=O)[C@H](CSSC[C@@H](C(=O)N[C@@H](CCCCN)C(=O)N[C@@H](Cc2ccc(O)cc2)C(=O)N[C@@H](CC(C)C)C(=O)N[C@@H](Cc2ccccc2)C(N)=O)NC(=O)[C@H](Cc2c[nH]c4ccccc24)NC(=O)[C@H](CCCCN)NC(=O)[C@H](Cc2c[nH]cn2)NC(=O)[C@H]([C@@H](C)O)NC(=O)[C@H](CCCNC(=N)N)NC(=O)[C@H](CO)NC3=O)NC(=O)[C@H](CCCCN)NC(=O)[C@H](CC(=O)O)NC(=O)[C@H](CC(N)=O)NC(=O)[C@H](CC(=O)O)NC(=O)[C@@H]2CCCN2C1=O [compound 400] (H-DCLGFMRKCIPDNDKCCRPNLVCSRTHKWCKYLF-NH2; disulfide 2-17, 9-23, 16-30)	–	–	–	130	70	IC50 (hNav1.5; IWQ Use Nav1.5 (μM)): > 5 µM
C#CCCC(=O)N[C@@H](CC(=O)O)C(=O)N[C@H]1CSSC[C@@H]2NC(=O)[C@@H]3CSSC[C@@H](C(=O)N[C@@H](CCCCN)C(=O)N[C@@H](Cc4ccc(O)cc4)C(=O)N[C@H](C(=O)N[C@@H](Cc4ccccc4)C(N)=O)C(C)C)NC(=O)[C@H](Cc4c[nH]c5ccccc45)NC(=O)[C@H](CCCNC(=N)N)NC(=O)[C@H](Cc4c[nH]cn4)NC(=O)[C@H]([C@@H](C)O)NC(=O)[C@H](CCCNC(=N)N)NC(=O)[C@H](CO)NC(=O)[C@H](CSSC[C@H](NC(=O)[C@H](CCCCN)NC(=O)[C@H](CCCNC(=N)N)NC(=O)[C@H](CC(C)C)NC(=O)[C@H](CC)NC(=O)CNC(=O)[C@H](CC(C)C)NC1=O)C(=O)N[C@@H]([C@@H](C)CC)C(=O)N1CCC[C@H]1C(=O)N[C@@H](CC(=O)O)C(=O)N[C@@H](CC)C(=O)N[C@@H](CC(=O)O)C(=O)N[C@@H](CCCCN)C(=O)N3)NC(=O)[C@H](C(C)C)NC(=O)[C@H](CC(C)C)NC(=O)[C@H](CC(N)=O)NC(=O)[C@@H]1CCCN1C(=O)[C@H](CCCNC(=N)N)NC2=O [compound 807] (Pent4ynoyl-DCLG[Abu]LRKCIPD[Abu]DKCCRPNLVCSRTHRWCKYVF-NH2; disulfide 2-17, 9-23, 16-30)	540	36.8	900	–	–	–
